According to patent publication US20130143891A1, “Methods for Treating Methotrexate-Resistant Disorders with 10-Propargyl-10-Deazaaminopterin” (ALLOS THERAPEUTICS, INC., priority 2010, published 2013):
Entries after “also recorded” stand apart in the source; their conditions may differ. Read-outs that look alike come from different tables or passages of the source.

Legend:
Assay type in all cases: cell-based, human
[1] = tested on: OVCAR3 ovarian cancer cell line; assay: MTT cell cytotoxicity assay, OVCAR3; settings: 72 h exposure, read-out: Cytotoxicity (IC50s)
Protocol: (§1) A panel of colon (HT29, HCT116, COLO205, HCC2998), breast (MCF7, MDA-MB-435), lung (HOP62, HOP92), ovarian (OVCAR3, IGROV1), prostate (DU145, PC3), and head and neck (SCC61, HEP2, SQ20B) human cancer cell lines was purchased from the ATCC (Rockville, Md.) and National Cancer Institute collections. […] All the data generated was the result of three separate experiments performed in duplicate. Cell viability was determined using the MTT assay, which was carried out as described previously (Hansen, 1989). Briefly, cells were seeded in 96-well plates at a density of 2×10^3 cells well^−1. […] The monolayer was suspended in 0.1 ml of DMSO and the absorbance at 560 nm was measured using a microplate reader. Positive and negative controls included wells with untreated cells or medium containing MTT with no cells, respectively. The conversion of yellow water-soluble tetrazolium MTT into purple insoluble formazan is catalyzed by mitochondrial dehydrogenases and is used to estimate the number of viable cells.

[2] = tested on: SQ20B head and neck cancer cell line; assay: MTT cell cytotoxicity assay, SQ20B; settings: 72 h exposure, read-out: Cytotoxicity (IC50s)
Protocol: as §1

[3] = tested on: COLO205 colon cancer cell line; assay: MTT cell cytotoxicity assay, COLO205; settings: 72 h exposure, read-out: Cytotoxicity (IC50s)
Protocol: as §1

[4] = tested on: HCC2998 colon cancer cell line; assay: MTT cell cytotoxicity assay, HCC2998; settings: 72 h exposure, read-out: Cytotoxicity (IC50s)
Protocol: as §1

[5] = tested on: SCC61 head and neck cancer cell line; assay: MTT cell cytotoxicity assay, SCC61; settings: 72 h exposure, read-out: Cytotoxicity (IC50s)
Protocol: as §1

[6] = tested on: MDA-MB-435 melanoma cell line; assay: MTT cell cytotoxicity assay, MDA-MB-435; settings: MDA-MB-435 (melanoma; MDA435 in table), 72 h exposure, read-out: Cytotoxicity (IC50s)
Protocol: as §1

[7] = tested on: DU145 prostate cancer cell line; assay: MTT cell cytotoxicity assay, DU145; settings: naïve/parental, 72 h exposure, read-out: Cytotoxicity (IC50s)
Protocol: as §1

[8] = tested on: IGROV1 ovarian cancer cell line; assay: MTT cell cytotoxicity assay, IGROV1; settings: 72 h exposure, read-out: Cytotoxicity (IC50s)
Protocol: as §1

[9] = tested on: HOP62 NSCLC cell line; assay: MTT cell cytotoxicity assay, HOP62; settings: 72 h exposure, read-out: Cytotoxicity (IC50s)
Protocol: as §1

[10] = tested on: HCT116 colon cancer cell line; assay: MTT cell cytotoxicity assay, HCT116; settings: 72 h exposure, read-out: Cytotoxicity (IC50s)
Protocol: as §1

[11] = tested on: HT29 colon cancer cell line; assay: MTT cell cytotoxicity assay, HT29; settings: 72 h exposure, read-out: Cytotoxicity (IC50s)
Protocol: as §1

[12] = tested on: MCF7 breast cancer cell line; assay: MTT cell cytotoxicity assay, MCF7; settings: 72 h exposure, read-out: Cytotoxicity (IC50s)
Protocol: as §1

[13] = tested on: HEP2 head and neck cancer cell line; assay: MTT cell cytotoxicity assay, HEP2; settings: 72 h exposure, read-out: Cytotoxicity (IC50s)
Protocol: as §1

[14] = tested on: HOP92 NSCLC cell line; assay: MTT cell cytotoxicity assay, HOP92; settings: 72 h exposure, read-out: Cytotoxicity (IC50s)
Protocol: as §1

[15] = tested on: PC3 prostate cancer cell line; assay: MTT cell cytotoxicity assay, PC3; settings: 72 h exposure, read-out: Cytotoxicity (IC50s)
Protocol: as §1

[16] = tested on: HEP-MTX cells; assay: Cytotoxicity in methotrexate-adapted HEP2 cells; settings: methotrexate-adapted HEP2 compared with parental cells
Protocol: (§2) All the data generated was the result of three separate experiments performed in duplicate. Cell viability was determined using the MTT assay, which was carried out as described previously (Hansen, 1989). Briefly, cells were seeded in 96-well plates at a density of 2×10^3 cells well^−1. Cells were incubated for 120 hours and then 0.4 mg ml^−1 of MTT dye (3-[4,5-dimethylthiazol-2-yl]-2,5-diphenyltetrazolium bromide was added for 4 hours at 37° C. The monolayer was suspended in 0.1 ml of DMSO and the absorbance at 560 nm was measured using a microplate reader. Positive and negative controls included wells with untreated cells or medium containing MTT with no cells, respectively. The conversion of yellow water-soluble tetrazolium MTT into purple insoluble formazan is catalyzed by mitochondrial dehydrogenases and is used to estimate the number of viable cells. The control value corresponding to untreated cells was taken as 100% and the viability of treated samples was expressed as a percentage of the control. IC50 values were determined as concentrations that reduced cell viability by 50%.
For single agent studies, cells were seeded and allowed to settle for 24 hours prior to treatment with increasing concentrations of 10-propargyl-10-deazaminopterin for 72 h. […]

[17] = tested on: HEP-PDX cells; assay: Cytotoxicity in 10-propargyl-10-deazaminopterin-adapted HEP2 cells
Protocol: as §2
(§3) For single agent studies, cells were seeded and allowed to settle for 24 hours prior to treatment with increasing concentrations of 10-propargyl-10-deazaminopterin for 72 h. After incubation, the cells were allowed to recover in compound-free medium for 48 h, prior to determination of growth inhibition using the MTT assay.
(§4) To characterize the predictive factors of 10-propargyl-10-deazaminopterin antiproliferative effects, the cell lines DU-PDX and HEP-PDX were developed from parental DU145 and HEP2 cells, respectively, by exposure to stepwise increasing concentrations of 10-propargyl-10-deazaminopterin over a period of 6 months.

[18] = tested on: DU-MTX cells; assay: Cytotoxicity in methotrexate-adapted DU145 cells
Protocol: as §2, §3
To compare the mechanisms of 10-propargyl-10-deazaminopterin and methotrexate resistance, the cell lines DU-MTX and HEP-MTX were developed from parental DU145 and HEP2 cells by exposure to stepwise increasing concentrations of methotrexate.

[19] = tested on: DU-PDX cells; assay: Cytotoxicity in 10-propargyl-10-deazaminopterin-adapted DU145 cells
Protocol: as §2, §3, §4

Compound: C[C@H]1O[C@@H](n2cc(F)c(=O)[nH]c2=O)[C@H](O)[C@@H]1O [5′-DFUR]
- IC50 [1]: 230 µM
- IC50 [2]: 27 µM
- IC50 [3]: 3.9 µM
- IC50 [4]: 34 µM
- IC50 [5]: 3.2 µM
- IC50 [6]: 33 µM
- IC50 [7]: 28 µM
- IC50 [8]: 29 µM
- IC50 [9]: 380 µM
- IC50 [10]: 45 µM
- IC50 [11]: 16 µM
- IC50 [12]: 7.8 µM
- IC50 [13]: 250 µM
- IC50 [14]: 135 µM
- IC50 [15]: 25 µM

Compound: CN(Cc1cnc2nc(N)nc(N)c2n1)c1ccc(C(=O)N[C@@H](CCC(=O)O)C(=O)O)cc1 [Methotrexate]
- IC50 ([1]; Homo sapiens, OVCAR-3, 72 h): > 350 µM
- IC50 ([2]; Homo sapiens, SQ20B, 72 h): 0.26 µM
- IC50 ([3]; Homo sapiens, COLO 205, 72 h): 30 µM
- IC50 ([4]; Homo sapiens, HCC 2998, 72 h): > 350 µM
- sensitivity of HEP-MTX cells (in words) [16]: displayed resistance
- IC50 ([5]; Homo sapiens, 72 h): 0.03 µM
- IC50 ([6]; Homo sapiens, MDA-MB-435, 72 h): > 350 µM
- IC50 ([7]; Homo sapiens, DU-145, 72 h): 0.3 µM
- IC50 ([8]; Homo sapiens, IGROV-1, 72 h): 0.33 µM
- IC50 ([9]; Homo sapiens, HOP-62, 72 h): 0.15 µM
- IC50 ([10]; Homo sapiens, HCT-116, 72 h): > 350 µM
- IC50 ([11]; Homo sapiens, HT-29, 72 h): 0.22 µM
- IC50 ([12]; Homo sapiens, MCF7, 72 h): 300 µM
- IC50 ([13]; Homo sapiens, HEp-2, 72 h): 0.25 µM
- cross-resistance: cytotoxicity in HEP-PDX compared with parental HEP2 ([17]; HEP-PDX cells, 72 h exposure for pemetrexed and 5-FU): partial cross-resistance
- IC50 ([14]; Homo sapiens, HOP-92, 72 h): 0.6 µM
- increase in IC50 in methotrexate adapted DU-145 cells ([18]; DU-MTX versus naïve DU-145): approximately 10 fold
- sensitivity of DU-MTX cells (in words) ([18]; methotrexate-adapted DU145 compared with parental/naïve cells): displayed resistance
- IC50 ([15]; Homo sapiens, 72 h): 0.1 µM
- cross-resistance: cytotoxicity in DU-PDX compared with parental DU145 ([19]; DU-PDX cells, 72 h exposure for pemetrexed and 5-FU): partial cross-resistance; also recorded: insensitive

Compound: Nc1nc2[nH]cc(CCc3ccc(C(=O)N[C@@H](CCC(=O)O)C(=O)O)cc3)c2c(=O)[nH]1 [Pemetrexed, pemetrexed]
- IC50 ([1]; Homo sapiens, OVCAR-3, 72 h): 0.025 µM
- IC50 ([2]; Homo sapiens, SQ20B, 72 h): 0.025 µM
- IC50 ([3]; Homo sapiens, COLO 205, 72 h): 0.024 µM
- IC50 ([4]; Homo sapiens, HCC 2998, 72 h): 1.5 µM
- IC50 ([5]; Homo sapiens, 72 h): 0.015 µM
- IC50 ([6]; Homo sapiens, MDA-MB-435, 72 h): 300 µM
- IC50 ([7]; Homo sapiens, DU-145, 72 h): 0.048 µM
- IC50 ([8]; Homo sapiens, IGROV-1, 72 h): 300 µM
- IC50 ([9]; Homo sapiens, HOP-62, 72 h): 0.029 µM
- IC50 ([10]; Homo sapiens, HCT-116, 72 h): 350 µM
- IC50 ([11]; Homo sapiens, HT-29, 72 h): 0.023 µM
- IC50 ([12]; Homo sapiens, MCF7, 72 h): 0.022 µM
- IC50 ([13]; Homo sapiens, HEp-2, 72 h): 0.1 µM
- cross-resistance: cytotoxicity in HEP-PDX compared with parental HEP2 [17]: only slightly less cytotoxic
- IC50 ([14]; Homo sapiens, HOP-92, 72 h): 0.02 µM
- IC50 ([15]; Homo sapiens, 72 h): 2.7 µM
- cross-resistance: cytotoxicity in DU-PDX compared with parental DU145 [19]: only slightly less cytotoxic
